Series [1] has as its target T1, Catechol O-methyltransferase (Sus scrofa, UniProt Q99028).
T1 sequence (Q99028 whole entry): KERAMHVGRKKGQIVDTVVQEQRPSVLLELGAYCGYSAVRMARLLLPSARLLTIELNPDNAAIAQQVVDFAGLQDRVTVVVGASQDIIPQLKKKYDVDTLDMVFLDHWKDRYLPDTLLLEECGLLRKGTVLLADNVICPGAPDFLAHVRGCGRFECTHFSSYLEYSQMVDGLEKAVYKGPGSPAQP
In words: In vitro inhibitory activity against Catechol-O-methyltransferase from porcine liver; Uncompetitive mode of inhibition.

For series [2], the target named is T1, Catechol O-methyltransferase. In words: In vitro inhibitory activity against Catechol-O-methyltransferase from porcine liver; Competitive mode of inhibition.
Compound in series [3]: O=C(NCCNC(=O)c1ccc(O)c(O)c1)c1ccc(O)c(O)c1
Put plainly: (§1) In vitro inhibitory activity against Catechol-O-methyltransferase from porcine liver; No inhibitory action. The following applies: Sus scrofa.

Compound in series [4]: O=C(NCCCCCNC(=O)c1ccc(O)c(O)c1)c1ccc(O)c(O)c1
Described as §1. The following applies: Sus scrofa.

Compound in series [5]: CCCNC(=O)c1ccc(O)c(O)c1
The description is as §1. Particulars: Sus scrofa.

Compound in series [6]: O=C(NCCCCCCNC(=O)c1ccc(O)c(O)c1)c1ccc(O)c(O)c1
The series is described as §1. Particulars: Sus scrofa.

Compound in series [7]: C[S+](CC[C@H](N)C(=O)[O-])C[C@H]1O[C@@H](n2cnc3c(N)ncnc32)[C@H](O)[C@@H]1O
Put plainly: (§2) In vitro inhibitory activity against Catechol-O-methyltransferase from porcine liver. The following applies: Sus scrofa.

Compound in series [8]: COC(=O)c1cc(O)c(O)c(O)c1
The description is as §2. Particulars: Sus scrofa.

Take `O=C(NCCCCCNC(=O)c1cc(O)c(O)c(O)c1)c1cc(O)c(O)c(O)c1`: in series [1], the Ki (in general, a measure of affinity in units of concentration, obtained from inhibition or displacement) came to 26.7 µM. In other words, the double-digit micromolar range.
Still for that read-out and setting: to `O=C(NCCNC(=O)c1cc(O)c(O)c(O)c1)c1cc(O)c(O)c(O)c1` belongs 136 µM; to `O=C(NCCCCCCNC(=O)c1cc(O)c(O)c(O)c1)c1cc(O)c(O)c(O)c1`, 35 µM.
The same measure, in the same setting: to `O=C(NCCCNC(=O)c1cc(O)c(O)c(O)c1)c1cc(O)c(O)c(O)c1` belongs 6.6 µM.
Molecule `O=C(NCCCNC(=O)c1ccc(O)c(O)c1)c1ccc(O)c(O)c1` yielded a Ki in series [2] of 0.3 µM. In other words, the sub-micromolar range.
As for `CCCNC(=O)c1cc(O)c(O)c(O)c1`, the Ki in series [2] amounted to 0.5 µM.

B1: Catechol O-methyltransferase (Sus scrofa), Q99028 (protein)
chain: KERAMHVGRKKGQIVDTVVQEQRPSVLLELGAYCGYSAVRMARLLLPSARLLTIELNPDNAAIAQQVVDFAGLQDRVTVVVGASQDIIPQLKKKYDVDTLDMVFLDHWKDRYLPDTLLLEECGLLRKGTVLLADNVICPGAPDFLAHVRGCGRFECTHFSSYLEYSQMVDGLEKAVYKGPGSPAQP
B1: the COMT inhibitory activity entry in series [3], in series [4], in series [5] and in series [6] was “No inhibitory action” throughout. Besides, the Km (as a rule, the concentration of substrate that gives half-maximal velocity) is 44.6 µM in series [7] and 25.5 µM in series [8].

For the origin of these results see ChEMBL document CHEMBL1130076, “Synthesis and in vitro evaluation of two progressive series of bifunctional polyhydroxybenzamide catechol-O-methyltransferase inhibitors” (J Med Chem, 1997).
